# Assay results reported in patent US12486294B2, “Radioisotope labeled compound for imaging or treatment of prostate cancer” (SEOUL NATIONAL UNIVERSITY R&DB FOUNDATION, priority 2019, dated 2025).
# What was measured:
# [1] = test system: PSMA-targeted 22Rv1 tumor; assay: In vivo distribution test in cancer transplantation animals; set-up: species or system BALB/c male nude mice
# Method: Specifically, 0.1 mL of RPMI1640 culture medium containing 5×10^6 22 Rv1 cells was subcutaneously injected into the left flank of a 4-week-old male BALB/c nude mouse. After 2 to 3 weeks, the present inventors confirmed that the tumor tissue had reached an appropriate size and used it in the experiment. For animal injection, [^99mTc]Tc-15 prepared in Example 3 and [^99mTc]Tc-16 prepared in Example 4 were each diluted in saline for injection to a concentration of 0.74 MBq/100 μL. Each of these was injected into the tail vein of the mice transplanted with cancer cells, and after 1 hour and 4 hours, cancer, blood, muscle, heart. Lung, liver, spleen, stomach, small intestine, kidney, bone, and the like were collected and their weight and radioactivity were measured.
# [2] = Stability test in human serum; type: in vitro ADME; conditions: 36.5° C., after 2 hours
# Method: The stability test in human serum is to test the stability when it comes into contact with human serum after administration to the human body, and the stability in the body is partly tested in vitro.
# In order to examine the stability of [^99mTc]Tc-15 according to the present invention in human serum, 3.7 MBq of [^99mTc]Tc-15 (100 μL) prepared in Example 3 was added to 1 mL of human serum, mixed well, and then cultured at 36.5° C. with stirring. After 2 hours, the reaction mixture was analyzed by ITLC.
# In order to examine the stability of [^99mTc]Tc-16 according to the present invention in human serum, 3.7 MBq of [^99mTc]Tc-16 (100 μL) prepared in Example 4 was added to 1 mL of human serum, mixed well, and then cultured at 36.5° C. with stirring. After 2 hours, the reaction mixture was analyzed by ITLC.
# [3] = target: PSMA (Homo sapiens, UniProt Q04609); conditions: 22Rv1 cells, 1 hour at 37° C., non-specific binding with 250 μM PMPA, nonlinear regression
# Chain of PSMA (Q04609 whole entry): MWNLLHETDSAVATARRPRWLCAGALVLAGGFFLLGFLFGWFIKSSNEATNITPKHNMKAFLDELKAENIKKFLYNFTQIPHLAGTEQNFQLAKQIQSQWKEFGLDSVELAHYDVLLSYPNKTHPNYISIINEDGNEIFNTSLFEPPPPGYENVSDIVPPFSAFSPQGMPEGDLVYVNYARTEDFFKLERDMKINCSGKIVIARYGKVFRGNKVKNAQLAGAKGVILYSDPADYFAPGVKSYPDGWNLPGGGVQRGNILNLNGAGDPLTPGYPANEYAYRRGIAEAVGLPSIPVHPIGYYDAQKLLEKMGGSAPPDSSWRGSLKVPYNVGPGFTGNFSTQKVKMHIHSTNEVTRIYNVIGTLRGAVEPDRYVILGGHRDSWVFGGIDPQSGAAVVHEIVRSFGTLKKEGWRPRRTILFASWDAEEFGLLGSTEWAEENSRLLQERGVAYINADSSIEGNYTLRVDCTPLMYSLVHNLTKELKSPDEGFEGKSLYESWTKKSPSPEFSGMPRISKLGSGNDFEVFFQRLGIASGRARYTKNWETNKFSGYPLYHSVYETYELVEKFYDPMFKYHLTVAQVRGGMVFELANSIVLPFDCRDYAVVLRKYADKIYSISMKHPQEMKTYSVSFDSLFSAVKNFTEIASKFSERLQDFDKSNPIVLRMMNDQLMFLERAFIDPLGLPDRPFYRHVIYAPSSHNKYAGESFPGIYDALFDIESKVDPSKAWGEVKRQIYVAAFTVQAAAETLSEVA
# Method: The PSMA-positive prostate cancer cell line 22Rv1 was placed in a 24-well plate at the density of 1×10^5 cells/well, followed by culture in a 37° C., 5% CO2 incubator for 24 hours. […] 0.5 mL of the diluted solution was taken and put into cultured cells and incubated in a 37° C., 5% CO2 incubator for 1 hour. After removing the culture medium, the cells were washed twice with fresh culture medium, 1 mL of 0.5% sodium dodecyl sulfate (SDS) dissolved in phosphate buffered saline was added thereto, gently shaken to dissolve, and then transferred to a 5 mL disposable plastic test tube. The radioactivity of the tube was measured using a gamma counter. […] Specific binding was obtained by subtracting non-specific binding from total binding, and a saturation curve was drawn. […] From these saturation curves, the dissociation constant, Kd, was calculated by nonlinear regression using GraphPad Prism 7 program.
# [4] = test system: PSMA-expressing 22Rv1 tumor; assay: SPECT imaging in 22Rv1 cell-transplanted mice; type: in vivo, BALB/c nude mouse
# Method: Specifically, 0.1 mL of RPMI1640 culture medium containing 5×10^6 22 Rv1 cells was subcutaneously injected into the right back of a 4-week-old male BALE/c nude mouse. After 2 to 3 weeks, the present inventors confirmed that the tumor tissue had reached an appropriate size and used it in the experiment. For animal injection, [^99mTc]Tc-15 and [^99mTc]Tc-16 were each diluted in saline for injection to a concentration of 10.2 MBq/100 μL. […]
# [5] = 1 h Blockade, co-injection of 2-PMPA (100 μg)
# [6] = 4 h Blockade, co-injection of 2-PMPA (100 μg)
smiles,measurement,setting,value
[99Tc+].[C-]#[N+]CCC(=O)NCCCCCC(=O)NCCCCC(NC(=O)N[C@@H](CCC(=O)O)C(=O)O)C(=O)O.[C-]#[N+]CCC(=O)NCCCCCC(=O)NCCCCC(NC(=O)N[C@@H](CCC(=O)O)C(=O)O)C(=O)O.[C-]#[N+]CCC(=O)NCCCCCC(=O)NCCCCC(NC(=O)N[C@@H](CCC(=O)O)C(=O)O)C(=O)O.[C-]#[O+].[C-]#[O+].[C-]#[O+] (stereo partly shown) [[^99mTc]Tc-15],"In vivo distribution, Blood",[1]; 1 h,0.60 % ID/g
same,"In vivo distribution, Bone",[1]; 1 h,0.34 % ID/g
same,"In vivo distribution, Heart",[1]; 1 h,0.22 % ID/g
same,"In vivo distribution, Intestine",[1]; 1 h,0.78 % ID/g
same,"In vivo distribution, Kidney",[1]; 1 h,59.59 % ID/g
same,"In vivo distribution, Liver",[1]; 1 h,0.94 % ID/g
same,"In vivo distribution, Lung",[1]; 1 h,0.64 % ID/g
same,"In vivo distribution, Muscle",[1]; 1 h,0.17 % ID/g
same,"In vivo distribution, Spleen",[1]; 1 h,0.90 % ID/g
same,"In vivo distribution, Stomach",[1]; 1 h,0.31 % ID/g
same,"In vivo distribution, Tumor",[1]; 1 h,1.48 % ID/g
same,Tumor/blood,[1]; 1 h,2.5
same,Tumor/kidney,[1]; 1 h,0.02
same,Tumor/liver,[1]; 1 h,1.57
same,Tumor/muscle,[1]; 1 h,8.5
same,"In vivo distribution, Blood",[1]; [5],0.52 % ID/g
same,"In vivo distribution, Bone",[1]; [5],0.26 % ID/g
same,"In vivo distribution, Heart",[1]; [5],0.16 % ID/g
same,"In vivo distribution, Intestine",[1]; [5],0.55 % ID/g
same,"In vivo distribution, Kidney",[1]; [5],4.22 % ID/g
same,"In vivo distribution, Liver",[1]; [5],0.84 % ID/g
same,"In vivo distribution, Lung",[1]; [5],0.61 % ID/g
same,"In vivo distribution, Muscle",[1]; [5],0.11 % ID/g
same,"In vivo distribution, Spleen",[1]; [5],0.15 % ID/g
same,"In vivo distribution, Stomach",[1]; [5],0.17 % ID/g
same,"In vivo distribution, Tumor",[1]; [5],0.38 % ID/g
same,Tumor/blood,[1]; [5],0.73
same,Tumor/kidney,[1]; [5],0.09
same,Tumor/liver,[1]; [5],0.45
same,Tumor/muscle,[1]; [5],3.5
same,"In vivo distribution, Blood",[1]; 4 h,0.31 % ID/g
same,"In vivo distribution, Bone",[1]; 4 h,0.16 % ID/g
same,"In vivo distribution, Heart",[1]; 4 h,0.12 % ID/g
same,"In vivo distribution, Intestine",[1]; 4 h,0.81 % ID/g
same,"In vivo distribution, Kidney",[1]; 4 h,13.72 % ID/g
same,"In vivo distribution, Liver",[1]; 4 h,0.85 % ID/g
same,"In vivo distribution, Lung",[1]; 4 h,0.30 % ID/g
same,"In vivo distribution, Muscle",[1]; 4 h,0.08 % ID/g
same,"In vivo distribution, Spleen",[1]; 4 h,0.26 % ID/g
same,"In vivo distribution, Stomach",[1]; 4 h,0.15 % ID/g
same,"In vivo distribution, Tumor",[1]; 4 h,0.81 % ID/g
same,Tumor/blood,[1]; 4 h,2.6
same,Tumor/kidney,[1]; 4 h,0.06
same,Tumor/liver,[1]; 4 h,0.96
same,Tumor/muscle,[1]; 4 h,10.4
same,"In vivo distribution, Blood",[1]; [6],0.31 % ID/g
same,"In vivo distribution, Bone",[1]; [6],0.20 % ID/g
same,"In vivo distribution, Heart",[1]; [6],0.10 % ID/g
same,"In vivo distribution, Intestine",[1]; [6],0.97 % ID/g
same,"In vivo distribution, Kidney",[1]; [6],1.44 % ID/g
same,"In vivo distribution, Liver",[1]; [6],0.84 % ID/g
same,"In vivo distribution, Lung",[1]; [6],0.30 % ID/g
same,"In vivo distribution, Muscle",[1]; [6],0.08 % ID/g
same,"In vivo distribution, Spleen",[1]; [6],0.16 % ID/g
same,"In vivo distribution, Stomach",[1]; [6],0.14 % ID/g
same,"In vivo distribution, Tumor",[1]; [6],0.20 % ID/g
same,Tumor/blood,[1]; [6],0.65
same,Tumor/kidney,[1]; [6],0.14
same,Tumor/liver,[1]; [6],0.24
same,Tumor/muscle,[1]; [6],2.71
same,intake when PSMA was blocked with PMPA,[1]; summary of Tables 2 and 3,the intake was decreased
same,tissue with highest intake,[1]; summary of Tables 2 and 3,the highest intake in the kidney
same,stability in human serum (ITLC),[2],most of them were present as [^99mTc]Tc-15 and hardly separated as ^99mTc
same,Kd,[3],5.5 nM
same,tumor intake in SPECT image with PSMA blocked,[4]; MIP-1072 injected to selectively block PSMA,tumor intake was not observed
same,tumor intake in SPECT image,"[4]; intravenous injection, 1 hour and 3 hours after the injection",no clear intake was observed
same,distribution observed in SPECT image,"[4]; tail vein injection, 1 hour and 3 hours",not only excreted by the kidney but also ingested into the prostate cancer tissue
